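GI50 is the concentration that inhibits growth by half. TGI marks complete inhibition of growth.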
What was measured:
Test in all cases: NCI anticancer screen, dose series, 384-well format
MDA-MB-231 breast = test system: MDA-MB-231 breast
T-47D breast = test system: T-47D breast
EKVX NSCLC = test system: EKVX NSCLC
A498 renal = test system: A498 renal
UACC-257 melanoma = test system: UACC-257 melanoma
TK-10 renal = test system: TK-10 renal
ACHN renal = test system: ACHN renal
SK-OV-3 ovarian = test system: SK-OV-3 ovarian
HCT-15 colon = test system: HCT-15 colon
HOP-62 NSCLC = test system: HOP-62 NSCLC
SN12C renal = test system: SN12C renal
PC-3 prostate = test system: PC-3 prostate
HOP-92 NSCLC = test system: HOP-92 NSCLC
RPMI-8226 leukemia = test system: RPMI-8226 leukemia
SNB-75 CNS = test system: SNB-75 CNS
NCI-H522 lung = test system: NCI-H522 lung
RXF 393 renal = test system: RXF 393 renal
SW-620 colon = test system: SW-620 colon
MOLT-4 leukemia = test system: MOLT-4 leukemia
IGROV1 ovarian = test system: IGROV1 ovarian
SK-MEL-28 melanoma = test system: SK-MEL-28 melanoma
NCI-H322M lung = test system: NCI-H322M lung
HCC-2998 colon = test system: HCC-2998 colon
CCRF-CEM leukemia = test system: CCRF-CEM leukemia
NCI/ADR-RES ovarian = test system: NCI/ADR-RES ovarian
786-0 renal = test system: 786-0 renal
UACC-62 melanoma = test system: UACC-62 melanoma
KM12 colon = test system: KM12 colon

`O=C1c2ccccc2-c2n[nH]c3cccc1c23` gave a GI50 (MDA-MB-231 breast) of 13.9 µM, a TGI (MDA-MB-231 breast) of over 100 µM and a GI50 (T-47D breast) of 21.5 µM. It also gave a TGI (T-47D breast) of over 100 µM, a GI50 (EKVX NSCLC) of 4.49 µM and a TGI (EKVX NSCLC) of over 100 µM. It also gave a GI50 (A498 renal) of 3 µM, a TGI (A498 renal) of 84.6 µM and a GI50 (UACC-257 melanoma) of 27.9 µM. For the same molecule, the TGI (UACC-257 melanoma) was over 100 µM, the GI50 (TK-10 renal) was 4.21 µM and the TGI (TK-10 renal) was over 100 µM. The GI50 (ACHN renal) was 11 µM, the TGI (ACHN renal) was 46.8 µM and the GI50 (SK-OV-3 ovarian) was 3.03 µM. It also gave a TGI (SK-OV-3 ovarian) of 14.6 µM, a GI50 (HCT-15 colon) of 4.63 µM and a TGI (HCT-15 colon) of over 100 µM. The GI50 (HOP-62 NSCLC) was 14.8 µM, the TGI (HOP-62 NSCLC) was 69.1 µM and the GI50 (SN12C renal) was 23.3 µM. It also gave a TGI (SN12C renal) of over 100 µM, a GI50 (PC-3 prostate) of 20.8 µM and a TGI (PC-3 prostate) of over 100 µM. It also gave a GI50 (HOP-92 NSCLC) of 20 µM, a TGI (HOP-92 NSCLC) of over 100 µM and a GI50 (RPMI-8226 leukemia) of 4.09 µM. It also gave a TGI (RPMI-8226 leukemia) of 30 µM, a GI50 (SNB-75 CNS) of 1.87 µM and a TGI (SNB-75 CNS) of 41.5 µM. It also gave a GI50 (NCI-H522 lung) of 7.22 µM, a TGI (NCI-H522 lung) of 53.5 µM and a GI50 (RXF 393 renal) of 11.7 µM. It also gave a TGI (RXF 393 renal) of 81.4 µM, a GI50 (SW-620 colon) of 11.7 µM and a TGI (SW-620 colon) of over 100 µM. It also gave a GI50 (MOLT-4 leukemia) of 1.74 µM, a TGI (MOLT-4 leukemia) of 3.76 µM and a GI50 (IGROV1 ovarian) of 4.82 µM. For the same molecule, the TGI (IGROV1 ovarian) was 64.6 µM, the GI50 (SK-MEL-28 melanoma) was 74.8 µM and the TGI (SK-MEL-28 melanoma) was over 100 µM. It also gave a GI50 (NCI-H322M lung) of 32.4 µM, a TGI (NCI-H322M lung) of over 100 µM and a GI50 (HCC-2998 colon) of 3.74 µM. It also gave a TGI (HCC-2998 colon) of 43.5 µM, a GI50 (CCRF-CEM leukemia) of 6 µM and a TGI (CCRF-CEM leukemia) of 25.2 µM. The GI50 (NCI/ADR-RES ovarian) was 53.9 µM, the TGI (NCI/ADR-RES ovarian) was over 100 µM and the GI50 (786-0 renal) was 19.2 µM. The TGI (786-0 renal) was over 100 µM, the GI50 (UACC-62 melanoma) was 15.5 µM and the TGI (UACC-62 melanoma) was over 100 µM. The GI50 (KM12 colon) was 2.78 µM.
